Laboratory results from PubChem BioAssay AID2060487 (Molecular Pharmacology Branch, DTP, NCI, 2025).

Test system: 997537-175-T-J1-PDC complex spheroid viability
Assay: Anticancer human tumor 997537-175-T-J1-PDC patient-derived colon adenocarcinoma cell line growth inhibition [GQUAD]
Settings: for IC50: curve of first compound; for viability, T/C: stronger effect = lower value
In short: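 Tumor cells were grown as complex spheroids with HUVEC endothelial cells and mesenchymal stem cells as stroma. G-quadruplex stabilizers were combined with targeted agents over half-log dilutions from near the clinical Cmax, or from 10 microM.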

[1] = second compound 0.0316 µM, first compound 0.0316 µM
[2] = second compound 0.0316 µM, first compound 0.1 µM
[3] = second compound 0.0316 µM, first compound 0.316 µM
[4] = second compound 0.0316 µM, first compound 1 µM
[5] = second compound 0.0316 µM, first compound 3.16 µM
[6] = second compound 0.0316 µM, first compound 10 µM
[7] = second compound 0.1 µM, first compound 0.0316 µM
[8] = second compound 0.1 µM, first compound 0.1 µM
[9] = second compound 0.1 µM, first compound 0.316 µM
[10] = second compound 0.1 µM, first compound 1 µM
[11] = second compound 0.1 µM, first compound 3.16 µM
[12] = second compound 0.1 µM, first compound 10 µM
[13] = second compound 0.316 µM, first compound 0.0316 µM
[14] = second compound 0.316 µM, first compound 0.1 µM
[15] = second compound 0.316 µM, first compound 0.316 µM
[16] = second compound 0.316 µM, first compound 1 µM
[17] = second compound 0.316 µM, first compound 3.16 µM
[18] = second compound 0.316 µM, first compound 10 µM
[19] = second compound 1 µM, first compound 0.0316 µM
[20] = second compound 1 µM, first compound 0.1 µM
[21] = second compound 1 µM, first compound 0.316 µM
[22] = second compound 1 µM, first compound 1 µM
[23] = second compound 1 µM, first compound 3.16 µM
[24] = second compound 1 µM, first compound 10 µM
[25] = second compound 3.16 µM, first compound 0.0316 µM
[26] = second compound 3.16 µM, first compound 0.1 µM
[27] = second compound 3.16 µM, first compound 0.316 µM
[28] = second compound 3.16 µM, first compound 1 µM
[29] = second compound 3.16 µM, first compound 3.16 µM
[30] = second compound 3.16 µM, first compound 10 µM
[31] = second compound 10 µM, first compound 0.0316 µM
[32] = second compound 10 µM, first compound 0.1 µM
[33] = second compound 10 µM, first compound 0.316 µM
[34] = second compound 10 µM, first compound 1 µM
[35] = second compound 10 µM, first compound 3.16 µM
[36] = second compound 10 µM, first compound 10 µM
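Further: spheroids exposed to the agents for 7 days.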
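Wherever viability, T/C is given: 100% = DMSO vehicle control viability.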

## COc1cccc2c1C(=O)c1c(O)c3c(c(O)c1C2=O)CC(O)(C(=O)CO)CC3OC1CC(N)C(O)C(C)O1 (stereo unspecified) + Cc1cnc(CNC(=O)c2c(=O)c3ccc(N4CCCN(C)CC4)nc3n3c2sc2ccccc23)cn1
Second compound 0.0316 µM
  IC50: > 10 µM
Second compound 0.1 µM
  IC50: > 10 µM
Second compound 0.316 µM
  IC50: 8.33 µM
Second compound 1 µM
  IC50: 7.33 µM
Second compound 3.16 µM
  IC50: 5.89 µM
Second compound 10 µM
  IC50: 6.25 µM
[1]
  viability, T/C: 112%
[2]
  viability, T/C: 74.6%
[3]
  viability, T/C: 97.5%
[4]
  viability, T/C: 93.6%
[5]
  viability, T/C: 80%
[6]
  viability, T/C: 52.8%
[7]
  viability, T/C: 107%
[8]
  viability, T/C: 76.5%
[9]
  viability, T/C: 94%
[10]
  viability, T/C: 90.8%
[11]
  viability, T/C: 86.5%
[12]
  viability, T/C: 55.2%
[13]
  viability, T/C: 82.3%
[14]
  viability, T/C: 90.4%
[15]
  viability, T/C: 115%
[16]
  viability, T/C: 98.5%
[17]
  viability, T/C: 87%
[18]
  viability, T/C: 42.5%
[19]
  viability, T/C: 91.5%
[20]
  viability, T/C: 68.4%
[21]
  viability, T/C: 116%
[22]
  viability, T/C: 106%
[23]
  viability, T/C: 88%
[24]
  viability, T/C: 36%
[25]
  viability, T/C: 69.7%
[26]
  viability, T/C: 81.3%
[27]
  viability, T/C: 78%
[28]
  viability, T/C: 103%
[29]
  viability, T/C: 93.4%
[30]
  viability, T/C: 20.1%
[31]
  viability, T/C: 75.8%
[32]
  viability, T/C: 77.4%
[33]
  viability, T/C: 109%
[34]
  viability, T/C: 91.9%
[35]
  viability, T/C: 93.2%
[36]
  viability, T/C: 22.7%

## Nc1ccn(C2OC(CO)C(O)C2(F)F)c(=O)n1 (stereo unspecified) + Cc1cnc(CNC(=O)c2c(=O)c3ccc(N4CCCN(C)CC4)nc3n3c2sc2ccccc23)cn1
Second compound 0.0316 µM
  IC50: > 10 µM
Second compound 0.1 µM
  IC50: > 10 µM
Second compound 0.316 µM
  IC50: > 10 µM
Second compound 1 µM
  IC50: > 10 µM
Second compound 3.16 µM
  IC50: > 10 µM
Second compound 10 µM
  IC50: > 10 µM
[1]
  viability, T/C: 90.3%
[2]
  viability, T/C: 99.5%
[3]
  viability, T/C: 87.3%
[4]
  viability, T/C: 66.6%
[5]
  viability, T/C: 66.5%
[6]
  viability, T/C: 56.4%
[7]
  viability, T/C: 99.4%
[8]
  viability, T/C: 84.5%
[9]
  viability, T/C: 94.7%
[10]
  viability, T/C: 56.4%
[11]
  viability, T/C: 89.4%
[12]
  viability, T/C: 83.8%
[13]
  viability, T/C: 93.1%
[14]
  viability, T/C: 108%
[15]
  viability, T/C: 69.4%
[16]
  viability, T/C: 76.6%
[17]
  viability, T/C: 94.6%
[18]
  viability, T/C: 92.9%
[19]
  viability, T/C: 89.8%
[20]
  viability, T/C: 103%
[21]
  viability, T/C: 102%
[22]
  viability, T/C: 68.3%
[23]
  viability, T/C: 104%
[24]
  viability, T/C: 77.6%
[25]
  viability, T/C: 68.8%
[26]
  viability, T/C: 96.6%
[27]
  viability, T/C: 106%
[28]
  viability, T/C: 101%
[29]
  viability, T/C: 85.6%
[30]
  viability, T/C: 89.3%
[31]
  viability, T/C: 103%
[32]
  viability, T/C: 85.9%
[33]
  viability, T/C: 113%
[34]
  viability, T/C: 72.9%
[35]
  viability, T/C: 91%
[36]
  viability, T/C: 73.7%

## O=c1[nH]cc(F)c(=O)[nH]1 + Cc1cnc(CNC(=O)c2c(=O)c3ccc(N4CCCN(C)CC4)nc3n3c2sc2ccccc23)cn1
Second compound 0.0316 µM
  IC50: > 10 µM
Second compound 0.1 µM
  IC50: > 10 µM
Second compound 0.316 µM
  IC50: > 10 µM
Second compound 1 µM
  IC50: > 10 µM
Second compound 3.16 µM
  IC50: > 10 µM
Second compound 10 µM
  IC50: > 10 µM
[1]
  viability, T/C: 96.2%
[2]
  viability, T/C: 87.6%
[3]
  viability, T/C: 85.1%
[4]
  viability, T/C: 92.8%
[5]
  viability, T/C: 89.6%
[6]
  viability, T/C: 76.2%
[7]
  viability, T/C: 75.6%
[8]
  viability, T/C: 82.8%
[9]
  viability, T/C: 92.8%
[10]
  viability, T/C: 82.8%
[11]
  viability, T/C: 102%
[12]
  viability, T/C: 83%
[13]
  viability, T/C: 75.9%
[14]
  viability, T/C: 74.3%
[15]
  viability, T/C: 84%
[16]
  viability, T/C: 105%
[17]
  viability, T/C: 110%
[18]
  viability, T/C: 111%
[19]
  viability, T/C: 88.1%
[20]
  viability, T/C: 70.1%
[21]
  viability, T/C: 84.9%
[22]
  viability, T/C: 109%
[23]
  viability, T/C: 67.2%
[24]
  viability, T/C: 82.6%
[25]
  viability, T/C: 78.4%
[26]
  viability, T/C: 96.1%
[27]
  viability, T/C: 87.8%
[28]
  viability, T/C: 90.1%
[29]
  viability, T/C: 82.7%
[30]
  viability, T/C: 92.7%
[31]
  viability, T/C: 73.7%
[32]
  viability, T/C: 95.3%
[33]
  viability, T/C: 98.3%
[34]
  viability, T/C: 75.2%
[35]
  viability, T/C: 107%
[36]
  viability, T/C: 90.6%
